Measurements: patent publication US20070015688A1, “Method for screening for inhibitors of alzheimer's disease” (priority 2000, published 2007)

System: low-density lipoprotein (LDL)
Test: LDL oxidation (lipid peroxidation) assay of Cu-metallated APP proteins
Format: biochemical
Settings: for % of lipid peroxidation by control: Cu-metallated proteins, 0.5 mg/mL LDL, 24 hr, 37° C., control LDL in PBS alone = 100; for effect on lipid peroxidation (Cu-reducing) activity of the CuBD, in words: mutations incorporated into APP133-189
Experimental: Mutagenesis experiments were performed to test this. His147 and His151 were mutated to Asn, Tyr168 was mutated to Phe, and Met170 was mutated to Leu. These mutations were incorporated into APP133-189. Recombinant protein was expressed in Pichia pastoris as described above, and purified by standard chromatography methods. The identities of the purified proteins were verified by mass spectrometry. The Cu-reducing activity of the CuBD was tested in a lipid peroxidation assay.
Two different assays of metal mediated lipid peroxidation were utilized. The first assay involved measuring the oxidative activity of metallated proteins. This was determined by mixing dialyzed metallated or native protein at designated concentrations with 0.5 mg/mL low-density lipoprotein (LDL) for 24 hr (37° C.). Lipid peroxidation was measured using a lipid peroxidation assay kit (LPO 486, Oxis International Inc. Portland, Oreg.), as per kit instructions.
The control is LDL (0.5 mg/mL) in PBS buffer alone. […] APP133-189 induced strong lipid peroxidation (3-fold above background).

Substance	% of lipid peroxidation by control [%]	lipid peroxidation above background (background = APP28-123 negative control) [fold]	effect on lipid peroxidation (Cu-reducing) activity of the CuBD, in words
APP133-189: truncated version of the CuBD of APP, recombinant protein expressed in Pichia pastoris (CKFLHQERMDVCETHLHWHTVAKETCSEKSTNLHDYGMLLPCGIDKFRGVEFVCCPL; UniProt P05067 133-189, looked up, fragment)	312	3	–
His147Asn: APP133-189 with His147 mutated to Asn	87	–	abolished this activity
His151Asn: APP133-189 with His151 mutated to Asn	196	–	affected the activity, but to a lesser extent
Met170Leu: APP133-189 with Met170 mutated to Leu	142	–	significant effect on the activity
Tyr168Phe: APP133-189 with Tyr168 mutated to Phe	111	–	significant effect on the activity
